According to ChEMBL document CHEMBL1201862, “PubChem BioAssay data set” (2004):
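Where inhibition never reached the appropriate level, the endpoint shown equals the highest concentration tested. Otherwise, values were interpolated linearly from a five-concentration, 48-hour dose response in 96-well plates. At the GI50, growth is halved.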 Active and inactive are the calls of the source. Cut-off read from the data, not from the text of the source: active = GI50 up to about 1.1 µM and inactive = higher.

Key:
Assay in all cases: growth of human tumour cells (NCI), 48 h
[1] = test system: 786-0
[2] = test system: A498
[3] = test system: A549
[4] = test system: ACHN
[5] = test system: BT-549
[6] = test system: CAKI-1
[7] = test system: CCRF-CEM
[8] = test system: COLO 205
[9] = test system: DU-145
[10] = test system: EKVX
[11] = test system: HCC 2998
[12] = test system: HCT-116
[13] = test system: HCT-15
[14] = test system: HL-60
[15] = test system: HOP-62
[16] = test system: HOP-92
[17] = test system: HT-29
[18] = test system: Hs-578T
[19] = test system: IGROV-1
[20] = test system: K562
[21] = test system: KM12
[22] = test system: LOX IMVI
[23] = test system: M14
[24] = test system: MCF7
[25] = test system: MDA-MB-231
[26] = test system: MDA-MB-435
[27] = test system: MDA-N
[28] = test system: MOLT-4
[29] = test system: Malme-3M
[30] = test system: NCI-H226
[31] = test system: NCI-H23
[32] = test system: NCI-H460
[33] = test system: NCI-H522
[34] = test system: NCI/ADR-RES
[35] = test system: OVCAR-3
[36] = test system: OVCAR-4
[37] = test system: OVCAR-5
[38] = test system: OVCAR-8
[39] = test system: PC-3
[40] = test system: RPMI-8226
[41] = test system: RXF 393
[42] = test system: SF-268
[43] = test system: SF-295
[44] = test system: SF-539
[45] = test system: SK-MEL-28
[46] = test system: SK-MEL-2
[47] = test system: SK-MEL-5
[48] = test system: SK-OV-3
[49] = test system: SN12C
[50] = test system: SNB-19
[51] = test system: SNB-75
[52] = test system: SR
[53] = test system: SW-620
[54] = test system: T47D
[55] = test system: TK-10
[56] = test system: U-251
[57] = test system: UACC-257
[58] = test system: UACC-62
[59] = test system: UO-31

Measured: GI50

Cc1cc2c(cc1C)N1C(Cl)=C3CCCCC3=C(C#N)C1N2 (configuration not stated)
inactive: [1] 1.92 µM | [2] 19.1 µM | [3] 19.9 µM | [4] 3.16 µM | [5] 2.45 µM | [6] 5.04 µM | [7] 2.48 µM | [8] 16.5 µM | [9] 19.3 µM | [10] 16.3 µM | [11] 8.69 µM | [12] 1.7 µM | [14] 3.05 µM | [15] 14.3 µM | [16] 7.4 µM | [17] 2.55 µM | [18] 7.85 µM | [19] 6.76 µM | [20] 3.6 µM | [21] 9.02 µM | [22] 2.19 µM | [23] 7.38 µM | [24] 4.16 µM | [25] 8.75 µM | [26] 6.03 µM | [27] 4.15 µM | [28] 3.48 µM | [29] 16.8 µM | [30] 13.5 µM | [31] 4.98 µM | [32] 18 µM | [33] 2 µM | [34] 6.31 µM | [35] 16.7 µM | [36] 12.3 µM | [37] 21.1 µM | [38] 11.5 µM | [39] 13.6 µM | [40] 5.25 µM | [41] 14 µM | [42] 9.25 µM | [43] 20.4 µM | [44] 22.4 µM | [45] 3.3 µM | [46] 14.6 µM | [47] 3.72 µM | [48] 18.6 µM | [49] 4.71 µM | [50] 20.2 µM | [51] 23.6 µM | [52] 3.65 µM | [53] 2.02 µM | [54] 12.2 µM | [55] 5.65 µM | [56] 9.42 µM | [57] 8.18 µM | [58] 2.94 µM | [59] 6.55 µM
2.61 µM: [13]

O=C1NCC(CSc2nc3cc(C4CCCc5c4[nH]c4ccccc54)ccc3o2)N1 (configuration not stated)
inactive: [1] 43.3 µM | [2] 18 µM | [3] 22.5 µM | [4] 34.2 µM | [5] 47.1 µM | [6] 41.5 µM | [7] 35.2 µM | [8] 61.4 µM | [9] 56 µM | [10] 25.6 µM | [11] 95.1 µM | [12] 33.4 µM | [14] 43.9 µM | [15] > 100 µM | [16] 21.2 µM | [17] 21.8 µM | [18] 38.1 µM | [19] 33 µM | [20] 31.5 µM | [21] 56.4 µM | [22] 32.5 µM | [23] 45.1 µM | [24] 39.7 µM | [25] 23.1 µM | [26] 30.9 µM | [27] 42.8 µM | [28] 15.2 µM | [29] 53.7 µM | [30] 62.7 µM | [31] 32.5 µM | [32] 72.3 µM | [33] 29.2 µM | [34] 50.4 µM | [35] 44.1 µM | [36] 32.2 µM | [37] 61.8 µM | [38] 30.8 µM | [39] 37.2 µM | [40] 22.4 µM | [41] 26.5 µM | [42] 36 µM | [43] 43.5 µM | [44] 36.4 µM | [45] 80.2 µM | [46] 39.3 µM | [47] 28.5 µM | [48] > 100 µM | [49] 49.7 µM | [50] 53.7 µM | [51] > 100 µM | [52] 14.7 µM | [53] 39.4 µM | [54] 25.8 µM | [55] 72.4 µM | [56] 51.5 µM | [57] 45.1 µM | [58] 39.6 µM | [59] 53.1 µM
24.5 µM: [13]

CCCCCCCCCCCC(=O)N(CCCCCCCCCCC(=O)O)CC(O)C(O)C(OC1OC(CO)C(O)C(O)C1O)C(O)CO (configuration not stated)
> 100 µM: [13]
inactive: [1] > 100 µM | [2] > 100 µM | [3] > 100 µM | [4] > 100 µM | [5] > 100 µM | [6] > 100 µM | [7] > 100 µM | [8] > 100 µM | [9] > 100 µM | [10] > 100 µM | [11] > 100 µM | [12] > 100 µM | [14] > 100 µM | [15] > 100 µM | [16] > 100 µM | [17] > 100 µM | [18] > 100 µM | [19] > 100 µM | [20] 95.1 µM | [21] > 100 µM | [22] > 100 µM | [23] > 100 µM | [24] > 100 µM | [25] > 100 µM | [26] > 100 µM | [27] > 100 µM | [28] > 100 µM | [29] > 100 µM | [30] > 100 µM | [31] > 100 µM | [32] > 100 µM | [33] > 100 µM | [34] > 100 µM | [35] > 100 µM | [36] > 100 µM | [37] > 100 µM | [38] > 100 µM | [39] > 100 µM | [40] 50.7 µM | [41] > 100 µM | [42] > 100 µM | [43] > 100 µM | [44] > 100 µM | [45] > 100 µM | [46] > 100 µM | [47] > 100 µM | [48] > 100 µM | [49] > 100 µM | [50] > 100 µM | [51] > 100 µM | [52] > 100 µM | [53] > 100 µM | [54] > 100 µM | [55] > 100 µM | [56] > 100 µM | [57] > 100 µM | [58] > 100 µM | [59] > 100 µM
